From patent publication US20240123073A1, “NOVEL RIPK1 KINASE TARGETING PROTACS AND METHODS OF USE THEREOF” (Baylor College of Medicine, priority 2020, published 2024)

Target: T1, RIPK1 (Homo sapiens, UniProt Q13546)
T1 construct: endogenous in cells
T1 sequence (Q13546 1-671): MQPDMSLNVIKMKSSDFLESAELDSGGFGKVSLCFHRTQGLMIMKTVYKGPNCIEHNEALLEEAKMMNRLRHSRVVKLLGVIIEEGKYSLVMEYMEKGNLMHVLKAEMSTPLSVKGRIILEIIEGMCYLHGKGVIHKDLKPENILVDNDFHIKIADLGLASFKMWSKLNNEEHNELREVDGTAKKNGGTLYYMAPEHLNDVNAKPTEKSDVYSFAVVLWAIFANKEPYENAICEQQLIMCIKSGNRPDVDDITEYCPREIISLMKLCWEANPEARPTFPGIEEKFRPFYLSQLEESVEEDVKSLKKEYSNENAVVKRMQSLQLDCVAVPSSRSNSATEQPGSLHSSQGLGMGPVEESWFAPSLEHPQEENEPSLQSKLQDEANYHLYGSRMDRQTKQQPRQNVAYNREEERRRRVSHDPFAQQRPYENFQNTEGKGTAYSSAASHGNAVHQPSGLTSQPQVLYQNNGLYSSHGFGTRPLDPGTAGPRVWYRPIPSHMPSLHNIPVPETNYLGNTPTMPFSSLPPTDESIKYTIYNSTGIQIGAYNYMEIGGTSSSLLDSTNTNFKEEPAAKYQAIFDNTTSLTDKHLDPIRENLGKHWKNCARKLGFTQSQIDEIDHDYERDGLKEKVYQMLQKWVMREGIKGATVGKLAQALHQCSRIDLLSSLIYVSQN
Test: RIPK1 degradation Western Blot assay
Assay type: cell-based
Settings: human cells, 24 h incubation at 37° C., read-out: Degradation Activity (DC50, concentration at which 50% of RIPK1 kinase has been degraded)
Description: Cells were seeded in 6-well cell culture plates overnight prior to treatment and incubated with the indicated doses of compounds for 24 h at 37° C. Then, cell pellets were collected and resuspended with RIPA lysis buffer, which was added with 1% […] inhibitor and phosphatase inhibitor Cocktail. Whole-cell protein lysates were sonicated on ice for 20 seconds and centrifuged at 12 000 rpm for 20 min at 4° C. The supernatants were determined using the BCA method. Proteins were separated by sodium dodecyl sulfate-polyacrylamide gel electrophoresis and transferred to polyvinylidene fluoride membranes. The membranes were incubated with blocking buffer for 1 h. Then, the membranes were incubated at 4° C. overnight with the primary antibodies. After washing, the membranes were incubated for 1 h at room temperature with the secondary antibody and washed again. Changes in protein expression was detected using an enhanced chemiluminescence detection reagent. RIPK1 antibody was purchased from Santa Cruz.
The activities of exemplary compounds as described herein, measured in terms of the degradation concentration (DC50 representing the concentration at which 50% of the target, in this case RIPK1 kinase, has been degraded), are provided in Table 11. In Table 11, a DC50 value less than 1 μM is indicated as an “A;” a DC50 value from 1 μM to 10 μM is indicated as a “B” and a DC50 value of greater than 10 μM is indicated as a “C.”

| DC50 | SMILES |
| --- | --- |
| 1 to 10 µM | Cc1ncsc1-c1ccc([C@H](C)NC(=O)[C@@H]2C[C@@H](O)CN2C(=O)[C@@H](NC(=O)CCC(=O)NCCCn2cc(-c3ccc4c(c3)CCN4C(=O)Cc3cccc(OC(F)(F)F)c3)c3c(N)ncnc32)C(C)(C)C)cc1 [Compound 1, N1-(3-(4-amino-5-(1-(2-(3-(trifluoromethoxy)phenyl)acetyl)indolin-5-yl)-7H-pyrrolo[2,3-d]pyrimidin-7-yl)propyl)-N4-((S)-1-((2S,4R)-4-hydroxy-2-(((S)-1-(4-(4 methylthiazol-5-yl)phenyl)ethyl)carbamoyl)pyrrolidin-1-yl)-3,3-dimethyl-1-oxobutan-2-yl)succinimide] |
| 1 to 10 µM | Nc1ncnc2c1c(-c1ccc3c(c1)CCN3C(=O)Cc1cccc(OC(F)(F)F)c1)cn2CCCNC(=O)CCOCCOCCOCCNc1cccc2c1C(=O)C(C1CCC(=O)NC1=O)C2=O (stereo not drawn) [Compound 8, N-(3-(4-amino-5-(1-(2-(3-(trifluoromethoxy)phenyl)acetyl)indolin-5-yl)-7H-pyrrolo[2,3-d]pyrimidin-7-yl)propyl)-3-(2-(2-(2-((2-(2,6-dioxopiperidin-3-yl)-1,3-dioxo-2,3-dihydro-1H-inden-4-yl)amino)ethoxy)ethoxy)ethoxy)propanamide] |
| 1 to 10 µM | Nc1ncnc2c1c(-c1ccc3c(c1)CCN3C(=O)Cc1cccc(OC(F)(F)F)c1)cn2CCCNC(=O)CCCCCCCCNC(=O)[C@@H]1NC2(CCCCC2)[C@@]2(C(=O)Nc3cc(Cl)ccc32)[C@H]1c1cccc(Cl)c1F [Compound 10, (3′R,4'S,5′R)-N-(9-((3-(4-amino-5-(1-(2-(3-(trifluoromethoxy)phenyl)acetyl)indolin-5-yl)-7H-pyrrolo[2,3-d]pyrimidin-7-yl)propyl)amino)-9-oxononyl)-6″-chloro-4′-(3-chloro-2-fluorophenyl)-2″-oxodispiro[cyclohexane-1,2′-pyrrolidine-3′,3″-indoline]-5′-carboxamide] |
| > 10 µM | O=C1CCC(C2C(=O)c3cccc(NCCOCCOCCOCCC(=O)N4CCC(C(=O)N5N=CCC5c5ccccc5)CC4)c3C2=O)C(=O)N1 (stereo not drawn) [Compound 11] |
| > 10 µM | O=C1CCC(C2C(=O)c3cccc(NCCOCCOCCC(=O)N4CCC(C(=O)N5N=CCC5c5ccccc5)CC4)c3C2=O)C(=O)N1 (stereo not drawn) [Compound 12] |
| > 10 µM | Cc1ncsc1-c1ccc([C@H](C)NC(=O)[C@@H]2C[C@@H](O)CN2C(=O)[C@@H](NC(=O)CCCCCCCCC(=O)N2CCC(C(=O)N3N=CCC3c3ccccc3)CC2)C(C)(C)C)cc1 (stereo partly drawn) [Compound 13, (2S,4R)-1-((2S)-3,3-dimethyl-2-(10-oxo-10-(4-(5-phenyl-4,5-dihydro-1H-pyrazole-1-carbonyl)piperidin-1-yl)decanamide)butanoyl)-4-hydroxy-N—((S)-1-(4-(4-methylthiazol-5-yl)phenyl)ethyl)pyrrolidine-2-carboxamide] |
| 1 to 10 µM | O=C(NCCOCCC(=O)N1CCC(C(=O)N2N=CCC2c2ccccc2)CC1)[C@@H]1NC2(CCCCC2)[C@@]2(C(=O)Nc3cc(Cl)ccc32)[C@H]1c1cccc(Cl)c1F (stereo partly drawn) [Compound 15, (3′R,4'S,5′R)-6″-chloro-4′-(3-chloro-2-fluorophenyl)-2″-oxo-N-(2-(3-oxo-3-(4-(5-phenyl-4,5-dihydro-1H-pyrazole-1-carbonyl)piperidin-1-yl)propoxy)ethyl)dispiro[cyclohexane-1,2′-pyrrolidine-3′,3″-indoline]-5′-carboxamide] |
| 1 to 10 µM | O=C1CCC(N2C(=O)c3cccc(NCCOCCOCCOCCNC(=O)c4ccnc(N5CCC(C(=O)N6N=CCC6c6ccccc6)CC5)n4)c3C2=O)C(=O)N1 (stereo not drawn) [Compound 19, N-(2-(2-(2-(2-((2-(2,6-dioxopiperidin-3-yl)-1,3-dioxoisoindolin-4-yl)amino)ethoxy)ethoxy)ethoxy)ethyl)-2-(4-(5-phenyl-4,5-dihydro-1H-pyrazole-1-carbonyl)piperidin-1-yl)pyrimidine-4-carboxamide] |
| 1 to 10 µM | O=C(NCCOCCOCCOCCNC(=O)[C@@H]1NC2(CCCCC2)[C@@]2(C(=O)Nc3cc(Cl)ccc32)[C@H]1c1cccc(Cl)c1F)c1ccnc(N2CCC(C(=O)N3N=CCC3c3ccccc3)CC2)n1 (stereo partly drawn) [Compound 20, (3′R,4'S,5′R)-6″-chloro-4′-(3-chloro-2-fluorophenyl)-2″-oxo-N-(1-oxo-1-(2-(4-(5-phenyl-4,5-dihydro-1H-pyrazole-1-carbonyl)piperidin-1-yl)pyrimidin-4-yl)-5,8,11-trioxa-2-azatridecan-13-yl)dispiro[cyclohexane-1,2′-pyrrolidine-3′,3″-indoline]-5′-carboxamide] |
| > 10 µM | O=C1CCC(N2C(=O)c3cccc(NCCOCCOCCOCCNC(=O)c4ccc(-c5cc(N6CCC(C(=O)N7N=CCC7c7ccccc7)CC6)ncn5)cc4)c3C2=O)C(=O)N1 (stereo not drawn) [Compound 21, N-(2-(2-(2-(2-((2-(2,6-dioxopiperidin-3-yl)-1,3-dioxoisoindolin-4-yl)amino)ethoxy)ethoxy)ethoxy)ethyl)-4-(6-(4-(5-phenyl-4,5-dihydro-1H-pyrazole-1-carbonyl)piperidin-1-yl)pyrimidin-4-yl)benzamide] |
| > 10 µM | Cc1ncsc1-c1ccc([C@H](C)NC(=O)[C@@H]2C[C@@H](O)CN2C(=O)[C@@H](NC(=O)CCOCCOCCOCCNC(=O)c2ccc(-c3cc(N4CCC(C(=O)N5N=CCC5c5ccccc5)CC4)ncn3)cc2)C(C)(C)C)cc1 (stereo partly drawn) [Compound 23, (2S,4R)-1-((16S)-16-(tert-butyl)-1,14-dioxo-1-(4-(6-(4-(5-phenyl-4,5-dihydro-1H-pyrazole-1-carbonyl)piperidin-1-yl)pyrimidin-4-yl)phenyl)-5,8,11-trioxa-2,15-diazaheptadecane-17-oyl)-4-hydroxy-N—((S)-1-(4-(4-methylthiazol-5-yl)phenyl)ethyl)pyrrolidine-2-carboxamide] |
| < 1 µM | Cc1ncsc1-c1ccc([C@H](C)NC(=O)[C@@H]2C[C@@H](O)CN2C(=O)[C@@H](NC(=O)CCOCCOCCOCCOCCn2cc(-c3ccc4c(c3)CCN4C(=O)Cc3cccc(OC(F)(F)F)c3)c3c(N)ncnc32)C(C)(C)C)cc1 [Compound 29, (2S,4R)-1-((S)-1-(4-amino-5-(1-(2-(3-(trifluoromethoxy)phenyl)acetyl)indolin-5-yl)-7H-pyrrolo[2,3-d]pyrimidin-7-yl)-17-(tert-butyl)-15-oxo-3,6,9,12-tetraoxa-16-azaoctadecan-18-oyl)-4-hydroxy-N—((S)-1-(4-(4-methylthiazol-5-yl)phenyl)ethyl)pyrrolidine-2-carboxamide] |
| < 1 µM | Cc1ncsc1-c1ccc([C@H](C)NC(=O)[C@@H]2C[C@@H](O)CN2C(=O)[C@@H](NC(=O)CCc2ccc(C#Cc3ccc(C(=O)NCCCn4cc(-c5ccc6c(c5)CCN6C(=O)Cc5cccc(OC(F)(F)F)c5)c5c(N)ncnc54)cc3)cn2)C(C)(C)C)cc1 [Compound 33] |
| < 1 µM | Cc1ncsc1-c1ccc([C@H](C)NC(=O)[C@@H]2C[C@@H](O)CN2C(=O)[C@@H](NC(=O)CCc2ccc(C#Cc3ccc(CCC(=O)NCCCn4cc(-c5ccc6c(c5)CCN6C(=O)Cc5cccc(OC(F)(F)F)c5)c5c(N)ncnc54)cc3)cn2)C(C)(C)C)cc1 [Compound 34] |
| < 1 µM | Cc1ncsc1-c1ccc([C@H](C)NC(=O)[C@@H]2C[C@@H](O)CN2C(=O)[C@@H](NC(=O)c2ccc(C#Cc3ccc(C(=O)NCCCn4cc(-c5ccc6c(c5)CCN6C(=O)Cc5cccc(OC(F)(F)F)c5)c5c(N)ncnc54)cc3)cn2)C(C)(C)C)cc1 [Compound 35] |
